# According to patent publication EP4467141A1, “PYRAZOLO-QUINOLINES AS SELECTIVE INHIBITORS OF GENOTOXIC STRESS-INDUCED IKK/NF- KB PATHWAYS FOR CANCER THERAPY” (Max-Delbrück-Centrum für Molekulare Medizin in der …, priority 2023, dated 2024):
# Columns and labels:
# Experiment in all cases: Kinase panel study
# Type in all cases: biochemical
# Conditions in all cases: read-out: Percentage of inhibition; for inhibition at 1 µM: 1000nM; for inhibition at 10 µM: 10000nM
# CAMK2A (CaMKII alpha) = biological target: T1, CAMK2A (CaMKII alpha) (Homo sapiens, UniProt Q9UQM7)
# T1 construct: purchased Thermo Fisher Scientific
# Outline: (§1)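 Kinase inhibition was determined by a contract provider in cell-free ZLyte or Adapta assays. Results are expressed as % inhibition at 10 or 1 µM.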
# CDK2/cyclin A = biological target: T2, CDK2/cyclin A (Homo sapiens, UniProt P24941)
# T2 construct: purchased Thermo Fisher Scientific
# Outline: as §1
# CDK7/cyclin H/MNAT1 = biological target: T3, CDK7/cyclin H/MNAT1 (Homo sapiens, UniProt P50613)
# T3 construct: purchased Thermo Fisher Scientific
# T3 sequence (P50613 whole entry): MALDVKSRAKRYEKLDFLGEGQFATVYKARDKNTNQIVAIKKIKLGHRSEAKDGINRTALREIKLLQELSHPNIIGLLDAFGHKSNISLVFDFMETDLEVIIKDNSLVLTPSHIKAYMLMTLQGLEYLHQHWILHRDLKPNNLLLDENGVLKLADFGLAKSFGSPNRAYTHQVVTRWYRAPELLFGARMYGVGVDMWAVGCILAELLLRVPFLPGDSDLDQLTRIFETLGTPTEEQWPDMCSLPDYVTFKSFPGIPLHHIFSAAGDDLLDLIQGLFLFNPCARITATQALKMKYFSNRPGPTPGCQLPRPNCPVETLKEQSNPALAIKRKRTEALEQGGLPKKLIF
# T3 sequence (P51946 whole entry partner): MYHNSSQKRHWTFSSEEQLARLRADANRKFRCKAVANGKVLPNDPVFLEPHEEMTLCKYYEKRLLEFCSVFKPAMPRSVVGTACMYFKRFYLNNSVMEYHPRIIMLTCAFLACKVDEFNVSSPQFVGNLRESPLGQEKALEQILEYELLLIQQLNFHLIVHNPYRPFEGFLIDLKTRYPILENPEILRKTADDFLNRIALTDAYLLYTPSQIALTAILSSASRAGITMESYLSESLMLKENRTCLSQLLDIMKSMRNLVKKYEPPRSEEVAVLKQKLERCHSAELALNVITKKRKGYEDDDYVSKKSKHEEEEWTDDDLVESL
# T3 sequence (P51948 whole entry partner): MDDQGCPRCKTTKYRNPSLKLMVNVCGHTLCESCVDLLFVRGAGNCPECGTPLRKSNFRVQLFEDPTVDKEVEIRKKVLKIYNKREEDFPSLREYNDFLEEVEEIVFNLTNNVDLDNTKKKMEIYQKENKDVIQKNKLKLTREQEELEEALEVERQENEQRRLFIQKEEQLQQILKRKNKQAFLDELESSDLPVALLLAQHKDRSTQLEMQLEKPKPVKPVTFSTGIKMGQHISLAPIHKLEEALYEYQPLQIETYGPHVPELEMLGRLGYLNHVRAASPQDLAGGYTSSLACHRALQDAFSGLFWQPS
# Outline: as §1
# EGFR (ErbB1) T790M = biological target: T4, EGFR (ErbB1) T790M (Homo sapiens, UniProt P00533, T790M)
# T4 construct: purchased Thermo Fisher Scientific
# Outline: as §1
# FGFR4 = biological target: T5, FGFR4 (Homo sapiens, UniProt P22455)
# T5 construct: purchased Thermo Fisher Scientific
# Outline: as §1
# FLT3 D835Y = biological target: T6, FLT3 D835Y (Homo sapiens, UniProt P36888, D835Y)
# T6 construct: purchased Thermo Fisher Scientific
# T6 sequence (P36888 27-993 D835Y): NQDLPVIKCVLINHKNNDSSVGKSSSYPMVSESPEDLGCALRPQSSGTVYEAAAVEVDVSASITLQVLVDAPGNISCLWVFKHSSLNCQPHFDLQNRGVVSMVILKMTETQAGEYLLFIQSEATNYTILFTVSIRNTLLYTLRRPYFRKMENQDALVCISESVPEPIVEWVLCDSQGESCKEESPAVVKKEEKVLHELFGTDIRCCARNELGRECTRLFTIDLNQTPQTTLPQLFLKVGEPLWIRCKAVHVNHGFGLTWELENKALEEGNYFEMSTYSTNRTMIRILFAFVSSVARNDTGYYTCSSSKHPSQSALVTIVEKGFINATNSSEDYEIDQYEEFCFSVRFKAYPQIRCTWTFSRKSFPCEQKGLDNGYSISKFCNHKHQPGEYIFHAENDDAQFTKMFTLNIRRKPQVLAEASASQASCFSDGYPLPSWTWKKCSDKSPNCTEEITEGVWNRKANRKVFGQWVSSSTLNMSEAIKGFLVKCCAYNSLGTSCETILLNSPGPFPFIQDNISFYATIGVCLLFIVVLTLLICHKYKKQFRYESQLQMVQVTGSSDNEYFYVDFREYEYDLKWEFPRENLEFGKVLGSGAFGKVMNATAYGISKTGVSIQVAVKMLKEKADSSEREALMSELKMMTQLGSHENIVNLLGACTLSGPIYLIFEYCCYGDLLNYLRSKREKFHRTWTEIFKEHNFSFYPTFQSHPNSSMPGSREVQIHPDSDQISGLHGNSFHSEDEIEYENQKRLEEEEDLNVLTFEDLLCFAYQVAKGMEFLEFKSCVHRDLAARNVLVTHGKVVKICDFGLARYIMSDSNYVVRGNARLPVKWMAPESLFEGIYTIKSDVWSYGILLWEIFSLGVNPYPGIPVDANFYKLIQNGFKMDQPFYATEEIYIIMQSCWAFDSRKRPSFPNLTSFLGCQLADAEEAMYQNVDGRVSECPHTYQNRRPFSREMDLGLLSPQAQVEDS
# Outline: as §1
# FYN = biological target: T7, FYN (Homo sapiens, UniProt P06241)
# T7 construct: purchased Thermo Fisher Scientific
# T7 sequence (P06241 whole entry): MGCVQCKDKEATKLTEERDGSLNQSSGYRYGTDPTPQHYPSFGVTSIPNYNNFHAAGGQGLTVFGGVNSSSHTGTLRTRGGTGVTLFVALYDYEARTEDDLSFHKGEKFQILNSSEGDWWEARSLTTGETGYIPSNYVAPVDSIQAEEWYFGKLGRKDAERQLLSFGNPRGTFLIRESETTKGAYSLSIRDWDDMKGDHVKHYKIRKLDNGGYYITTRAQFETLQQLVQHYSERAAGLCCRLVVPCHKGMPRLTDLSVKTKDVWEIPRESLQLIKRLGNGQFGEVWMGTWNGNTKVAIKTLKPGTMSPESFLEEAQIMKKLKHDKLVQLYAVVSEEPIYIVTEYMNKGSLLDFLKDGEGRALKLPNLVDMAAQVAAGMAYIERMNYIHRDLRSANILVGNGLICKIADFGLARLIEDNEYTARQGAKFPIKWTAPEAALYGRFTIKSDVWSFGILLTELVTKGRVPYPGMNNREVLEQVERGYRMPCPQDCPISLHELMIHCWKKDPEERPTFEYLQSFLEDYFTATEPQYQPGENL
# Outline: as §1
# JAK2 = biological target: T8, JAK2 (Homo sapiens, UniProt O60674)
# T8 construct: purchased Thermo Fisher Scientific
# Outline: as §1
# KIT V559D = biological target: T9, KIT V559D (Homo sapiens, UniProt P10721, V559D)
# T9 construct: purchased Thermo Fisher Scientific
# T9 sequence (P10721 26-976 V559D): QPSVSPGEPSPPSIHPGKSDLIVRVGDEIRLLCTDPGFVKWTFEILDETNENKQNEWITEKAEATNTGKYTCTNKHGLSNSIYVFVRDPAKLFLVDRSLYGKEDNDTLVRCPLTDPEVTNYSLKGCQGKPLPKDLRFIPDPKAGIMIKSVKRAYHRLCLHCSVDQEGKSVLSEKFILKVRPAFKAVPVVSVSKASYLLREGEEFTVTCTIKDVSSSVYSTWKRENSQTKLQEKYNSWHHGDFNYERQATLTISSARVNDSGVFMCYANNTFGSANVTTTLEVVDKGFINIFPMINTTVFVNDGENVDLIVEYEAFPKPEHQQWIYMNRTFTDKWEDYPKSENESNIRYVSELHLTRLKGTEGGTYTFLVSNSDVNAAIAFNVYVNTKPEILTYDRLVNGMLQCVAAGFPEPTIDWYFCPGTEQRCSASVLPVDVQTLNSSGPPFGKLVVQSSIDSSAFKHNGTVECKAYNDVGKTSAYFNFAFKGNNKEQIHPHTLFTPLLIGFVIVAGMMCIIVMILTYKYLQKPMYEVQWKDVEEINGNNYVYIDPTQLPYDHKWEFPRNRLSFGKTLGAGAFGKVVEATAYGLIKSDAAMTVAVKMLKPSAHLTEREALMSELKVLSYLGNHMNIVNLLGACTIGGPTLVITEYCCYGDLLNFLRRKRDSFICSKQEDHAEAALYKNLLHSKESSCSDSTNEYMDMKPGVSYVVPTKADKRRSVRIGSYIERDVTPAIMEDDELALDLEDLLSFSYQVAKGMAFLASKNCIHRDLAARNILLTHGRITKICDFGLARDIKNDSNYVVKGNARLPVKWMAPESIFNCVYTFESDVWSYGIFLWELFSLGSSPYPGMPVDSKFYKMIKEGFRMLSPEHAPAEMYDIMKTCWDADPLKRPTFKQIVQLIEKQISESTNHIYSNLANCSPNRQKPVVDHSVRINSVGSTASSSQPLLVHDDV
# Outline: as §1
# LYN B = biological target: T10, LYN B (Homo sapiens, UniProt P07948)
# T10 construct: purchased Thermo Fisher Scientific
# T10 sequence (P07948 1-491 isoform P07948-2): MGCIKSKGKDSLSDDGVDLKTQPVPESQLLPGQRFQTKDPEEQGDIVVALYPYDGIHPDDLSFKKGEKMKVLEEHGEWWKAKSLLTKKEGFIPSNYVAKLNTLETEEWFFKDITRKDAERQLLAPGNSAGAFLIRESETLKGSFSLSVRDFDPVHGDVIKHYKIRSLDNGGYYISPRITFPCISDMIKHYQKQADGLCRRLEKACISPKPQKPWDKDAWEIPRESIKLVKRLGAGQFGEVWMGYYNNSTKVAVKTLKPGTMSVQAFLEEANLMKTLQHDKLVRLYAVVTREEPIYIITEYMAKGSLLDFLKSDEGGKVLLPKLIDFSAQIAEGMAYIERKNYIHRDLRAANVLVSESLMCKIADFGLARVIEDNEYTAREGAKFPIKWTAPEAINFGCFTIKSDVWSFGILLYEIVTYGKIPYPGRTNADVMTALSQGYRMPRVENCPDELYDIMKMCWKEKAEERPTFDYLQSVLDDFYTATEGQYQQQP
# Outline: as §1
# MAPK3 (ERK1) = biological target: T11, MAPK3 (ERK1) (Homo sapiens, UniProt P27361)
# T11 construct: purchased Thermo Fisher Scientific
# T11 sequence (P27361 whole entry): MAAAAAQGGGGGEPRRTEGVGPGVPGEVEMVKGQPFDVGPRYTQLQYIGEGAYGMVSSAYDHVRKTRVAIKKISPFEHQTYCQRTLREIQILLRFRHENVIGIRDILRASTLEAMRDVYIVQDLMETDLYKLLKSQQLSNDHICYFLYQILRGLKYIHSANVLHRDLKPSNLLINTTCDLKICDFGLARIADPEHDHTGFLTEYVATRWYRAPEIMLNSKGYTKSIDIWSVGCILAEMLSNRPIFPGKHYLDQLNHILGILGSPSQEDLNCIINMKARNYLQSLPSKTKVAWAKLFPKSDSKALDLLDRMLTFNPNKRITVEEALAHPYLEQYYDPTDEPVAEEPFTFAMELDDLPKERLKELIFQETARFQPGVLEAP
# Outline: as §1
# MST1R (RON) = biological target: T12, MST1R (RON) (Homo sapiens, UniProt Q04912)
# T12 construct: purchased Thermo Fisher Scientific
# Outline: as §1
# [1] = biological target: T13, PIK3CA E545K/PIK3R1 (p11 0 alpha E545K/p85 alpha) (Homo sapiens, UniProt P42336, E545K)
# T13 construct: purchased Thermo Fisher Scientific
# Outline: as §1
# PLK2 = biological target: T14, PLK2 (Homo sapiens, UniProt Q9NYY3)
# T14 construct: purchased Thermo Fisher Scientific
# T14 sequence (Q9NYY3 whole entry): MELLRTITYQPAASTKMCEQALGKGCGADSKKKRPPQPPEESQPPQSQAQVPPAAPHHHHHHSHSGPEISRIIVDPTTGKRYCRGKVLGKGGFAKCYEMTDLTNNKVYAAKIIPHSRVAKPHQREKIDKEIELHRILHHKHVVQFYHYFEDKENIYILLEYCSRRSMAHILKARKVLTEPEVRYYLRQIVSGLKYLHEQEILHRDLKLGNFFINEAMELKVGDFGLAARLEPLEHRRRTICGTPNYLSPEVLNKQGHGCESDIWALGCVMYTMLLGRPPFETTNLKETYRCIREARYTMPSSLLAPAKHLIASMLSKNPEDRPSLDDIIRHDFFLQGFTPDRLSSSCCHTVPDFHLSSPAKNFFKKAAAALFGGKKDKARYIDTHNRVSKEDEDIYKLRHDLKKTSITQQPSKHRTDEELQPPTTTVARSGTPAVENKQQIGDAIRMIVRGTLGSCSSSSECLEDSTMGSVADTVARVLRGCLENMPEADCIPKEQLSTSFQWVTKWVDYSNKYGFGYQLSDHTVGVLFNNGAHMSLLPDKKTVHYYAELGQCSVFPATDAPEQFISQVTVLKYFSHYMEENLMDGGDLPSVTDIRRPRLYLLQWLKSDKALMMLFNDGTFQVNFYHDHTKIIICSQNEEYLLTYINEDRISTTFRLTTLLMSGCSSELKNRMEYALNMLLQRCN
# Outline: as §1
# RPS6KA3 (RSK2) = biological target: T15, RPS6KA3 (RSK2) (Homo sapiens, UniProt P51812)
# T15 construct: purchased Thermo Fisher Scientific
# T15 sequence (P51812 whole entry): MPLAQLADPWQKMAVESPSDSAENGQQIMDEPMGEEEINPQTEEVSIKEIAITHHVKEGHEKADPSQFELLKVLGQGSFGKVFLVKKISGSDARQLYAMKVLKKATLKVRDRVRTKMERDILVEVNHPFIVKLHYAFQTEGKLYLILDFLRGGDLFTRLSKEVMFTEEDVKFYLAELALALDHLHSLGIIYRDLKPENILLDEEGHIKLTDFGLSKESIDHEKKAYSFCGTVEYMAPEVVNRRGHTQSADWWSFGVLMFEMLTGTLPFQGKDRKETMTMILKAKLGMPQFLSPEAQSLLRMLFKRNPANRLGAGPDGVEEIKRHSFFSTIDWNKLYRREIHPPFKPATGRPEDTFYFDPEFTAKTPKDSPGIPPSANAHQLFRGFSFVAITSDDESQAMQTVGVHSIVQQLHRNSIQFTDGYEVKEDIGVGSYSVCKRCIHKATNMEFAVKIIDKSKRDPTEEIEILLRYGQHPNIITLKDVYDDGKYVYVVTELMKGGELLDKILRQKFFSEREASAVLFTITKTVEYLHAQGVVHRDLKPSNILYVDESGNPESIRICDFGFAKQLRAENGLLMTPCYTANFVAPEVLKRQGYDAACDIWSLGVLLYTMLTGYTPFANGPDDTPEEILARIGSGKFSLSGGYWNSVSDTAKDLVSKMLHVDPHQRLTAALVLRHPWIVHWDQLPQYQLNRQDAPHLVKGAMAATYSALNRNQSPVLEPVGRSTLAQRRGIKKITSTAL
# Outline: as §1
smiles,measurement,setting,value
"COc1ccc2c(c1OC)c(=O)n1c3ccc(O)cc3c3ccnc2c31 [MW01, 5-Hydroxy-10,11-dimethoxy-9H-benzo[c]indolo[3,2,1-ij][1,5]naphthyridin-9-one]",inhibition at 1 µM,CAMK2A (CaMKII alpha),12%
same,inhibition at 10 µM,CAMK2A (CaMKII alpha),39%
same,inhibition at 1 µM,CDK2/cyclin A,14%
same,inhibition at 10 µM,CDK2/cyclin A,37%
same,inhibition at 1 µM,CDK7/cyclin H/MNAT1,3%
same,inhibition at 10 µM,CDK7/cyclin H/MNAT1,4%
same,inhibition at 1 µM,EGFR (ErbB1) T790M,8%
same,inhibition at 10 µM,EGFR (ErbB1) T790M,19%
same,inhibition at 1 µM,FGFR4,13%
same,inhibition at 10 µM,FGFR4,37%
same,inhibition at 1 µM,FLT3 D835Y,81%
same,inhibition at 10 µM,FLT3 D835Y,92%
same,inhibition at 1 µM,FYN,3%
same,inhibition at 10 µM,FYN,15%
same,inhibition at 1 µM,JAK2,15%
same,inhibition at 10 µM,JAK2,48%
same,inhibition at 1 µM,KIT V559D,11%
same,inhibition at 10 µM,KIT V559D,25%
same,inhibition at 1 µM,LYN B,6%
same,inhibition at 10 µM,LYN B,23%
same,inhibition at 1 µM,MAPK3 (ERK1),14%
same,inhibition at 10 µM,MAPK3 (ERK1),4%
same,inhibition at 1 µM,MST1R (RON),22%
same,inhibition at 10 µM,MST1R (RON),39%
same,inhibition at 1 µM,[1],91%
same,inhibition at 10 µM,[1],97%
same,inhibition at 1 µM,PLK2,-1%
same,inhibition at 10 µM,PLK2,-2%
same,inhibition at 1 µM,RPS6KA3 (RSK2),5%
same,inhibition at 10 µM,RPS6KA3 (RSK2),10%
"COc1ccc2cc3c(N)nn(C(=O)c4cccc(N(C)C)c4)c3nc2c1 [MW05, (3-Amino-7-methoxypyrazolo[3,4-b]quinolin-1-yl)-[3-(dimethylamino)phenyl]methanone]",inhibition at 1 µM,CAMK2A (CaMKII alpha),9%
same,inhibition at 10 µM,CAMK2A (CaMKII alpha),16%
same,inhibition at 1 µM,CDK2/cyclin A,12%
same,inhibition at 10 µM,CDK2/cyclin A,25%
same,inhibition at 1 µM,CDK7/cyclin H/MNAT1,2%
same,inhibition at 10 µM,CDK7/cyclin H/MNAT1,29%
same,inhibition at 1 µM,EGFR (ErbB1) T790M,4%
same,inhibition at 10 µM,EGFR (ErbB1) T790M,0%
same,inhibition at 1 µM,FGFR4,13%
same,inhibition at 10 µM,FGFR4,-4%
same,inhibition at 1 µM,FLT3 D835Y,10%
same,inhibition at 10 µM,FLT3 D835Y,15%
same,inhibition at 1 µM,FYN,4%
same,inhibition at 10 µM,FYN,5%
same,inhibition at 1 µM,JAK2,-3%
same,inhibition at 10 µM,JAK2,-20%
same,inhibition at 1 µM,KIT V559D,13%
same,inhibition at 10 µM,KIT V559D,15%
same,inhibition at 1 µM,LYN B,6%
same,inhibition at 10 µM,LYN B,0%
same,inhibition at 1 µM,MAPK3 (ERK1),14%
same,inhibition at 10 µM,MAPK3 (ERK1),11%
same,inhibition at 1 µM,MST1R (RON),-1%
same,inhibition at 10 µM,MST1R (RON),-16%
same,inhibition at 1 µM,[1],15%
same,inhibition at 10 µM,[1],61%
same,inhibition at 1 µM,PLK2,3%
same,inhibition at 10 µM,PLK2,-2%
same,inhibition at 1 µM,RPS6KA3 (RSK2),3%
same,inhibition at 10 µM,RPS6KA3 (RSK2),2%
